Measured values as given in PMC10573062, “Synthesis, Structural Characterization, Cytotoxicity, and Protein/DNA Binding Properties of Pyridoxylidene-Aminoguanidine-Metal (Fe, Co, Zn, Cu) Complexes” (International Journal of Molecular Sciences, 2023).

Experiments:
A2780 ovarian cancer [1] = test: MTT viability assay, A2780; type: cell-based, human; conditions: 72 h of treatment
Experimental: (§1) The following cell lines were used in this study: human cell lines (A375 melanoma, MCF-7 breast cancer, HCT116 colorectal carcinoma, and A2780 ovarian cancer. These cell lines were purchased from the American Type Culture Collection (Rockville, MD, USA). The A2780 cells were cultivated in DMEM, while all other cell lines were cultivated in the HEPES-buffered RPMI-1640 medium. The cell culture mediums were supplemented with penicillin (1000 units/mL), streptomycin (100 µg/mL), and 10% inactivated FBS. All cells were cultivated at 37 °C in a humidified atmosphere with 5% CO2.
(§2) Two colorimetric viability assays were applied, namely 3-(4,5-dimethylthiazol-2-yl)-2,5-diphenyl-2H-tetrazolium bromide (MTT) and crystal-violet (CV) (Sigma Aldrich, St. Louis, MO, USA), according to the previous studies. The cells were seeded overnight in 96-well plates: A2780 and MRC-5 8 × 10^3 cells/well, HCT 116 6 × 10^3 cells/well, A375 5 × 10^3 cells/well, and MCF-7 at 10 × 10^3 cells/well [67]. The standard solutions of complexes were prepared in DMSO. All cells were treated with the following concentrations of investigated compounds: 100, 50, 25, 12.5, 6.25, 3.125, and 1.56 µM. After 72 h of treatment, viability assays were conducted. For the CV assay, cells were fixed using 4% paraformaldehyde (PFA) for 20 min at room temperature after being washed once with PBS. Afterward, they were stained with 0.2% CV solution for 25 min. This procedure was followed by washing with double distilled water. The cells were left to dry overnight at room temperature. In the last step, 33% acetic acid was used to dissolve the remaining dye. The other test included incubating cells in MTT solution (0.5 mg L^−1 in cell culture medium) for […] at 37 °C in a humid environment with 5% CO2. After one hour, the MTT solution was discarded, and the formed formazan was dissolved using DMSO. A plate reader (Spectromax, Molecular Devices, San Jose, CA, USA) was utilized for the absorption measurements at 570 and 670 (background) nm. The cell viability was calculated as the percentage compared to untreated cells, and the mean was obtained using a four-parametric logistic function. Each of the three independent experiments was performed in quadruplicate.

[2] = Qualitative solubility in solvents; type: physicochemical
MCF-7 breast cancer [3] = test: CV (crystal-violet) viability assay, MCF-7; type: cell-based, human; conditions: MCF-7, CV, 72 h of treatment
Experimental: as §1, §2

[4] = test system: HCT116 colorectal carcinoma; test: CV (crystal-violet) viability assay, HCT116; type: cell-based, human; conditions: 72 h of treatment
Experimental: as §1, §2

A2780 ovarian cancer [5] = test: CV (crystal-violet) viability assay, A2780; type: cell-based, human; conditions: 72 h of treatment
Experimental: as §1, §2

MCF-7 breast cancer [6] = test: MTT viability assay, MCF-7; type: cell-based, human; conditions: MCF-7, MTT, 72 h of treatment
Experimental: as §1, §2

[7] = molecular target: T1, human serum albumin (HSA) (Homo sapiens, UniProt P02768); test: Spectrofluorometric titration of HSA (fluorescence quenching, double log Stern–Volmer, van't Hoff); type: binding; conditions: for ΔHb / ΔSb: van't Hoff over three temperatures
T1 construct: purchased
T1 sequence (P02768 25-609): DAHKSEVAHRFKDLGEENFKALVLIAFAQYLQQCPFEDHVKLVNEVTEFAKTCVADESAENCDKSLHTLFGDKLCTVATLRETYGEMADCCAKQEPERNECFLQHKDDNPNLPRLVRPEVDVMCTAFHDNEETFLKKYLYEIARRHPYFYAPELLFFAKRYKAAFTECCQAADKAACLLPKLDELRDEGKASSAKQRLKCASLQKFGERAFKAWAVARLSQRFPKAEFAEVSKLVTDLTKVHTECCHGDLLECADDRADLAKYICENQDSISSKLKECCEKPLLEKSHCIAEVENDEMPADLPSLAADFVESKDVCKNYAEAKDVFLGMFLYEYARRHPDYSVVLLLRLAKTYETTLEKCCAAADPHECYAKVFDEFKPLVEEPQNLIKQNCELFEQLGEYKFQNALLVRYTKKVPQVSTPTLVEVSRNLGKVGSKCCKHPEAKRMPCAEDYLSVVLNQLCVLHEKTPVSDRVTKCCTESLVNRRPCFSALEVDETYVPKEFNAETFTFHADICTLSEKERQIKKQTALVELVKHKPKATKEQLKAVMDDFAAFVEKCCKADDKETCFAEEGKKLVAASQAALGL
Experimental: (§3) The protein binding affinity of obtained compounds was analyzed by the spectrofluorometric titration of BSA and HSA solution by the solution containing obtained compounds. The mixture was irradiated by light with a wavelength of 295 (BSA) and 280 nm (HSA). Both proteins contain fluorescent amino acids within active pockets, and the binding process can be monitored through the change in intensity and position of the emitted light maxima. The fluorescent emission depends on the chemical environment of amino acids. The measurements for each complex were repeated at three temperatures to allow the determination of the thermodynamic parameters of binding.
The binding affinity of obtained complexes was also examined towards HSA as a transport protein relevant to the human body. The temperature range was changed to reflect better temperatures common for humans (32–42 °C). The representative example of the HAS fluorescence measurements is shown in Figure 9, along with van’t Hoff’s plot. The decrease in the fluorescence intensity emission was also dependent on the concentration of complexes. On average, the binding constants were similar to the ones calculated for BSA. […] High correlation coefficients, between 0.990 and 0.998, were calculated for the dependency described by Equation (2). The number of binding places is 1, proving that the same type of complexes were formed between investigated compounds and HAS as previously shown for BSA.
(§4) The spectrofluorometric measurements were used to investigate the binding process of obtained compounds towards bovine serum albumin (BSA) and human serum albumin (HSA) on the Cary Eclipse MY2048CH03 instrument. The scan rate was 600 nm min^−1, and both slits were 5 nm. The excitation wavelengths were 295 nm and 280 nm for BSA and HSA, respectively. These energies are characteristics of the protein structure’s tryptophan and other fluorescent amino acid residues. The emission spectra were recorded between 310 and 500 nm. The concentration of proteins was held constant at 5 × 10^−6 M in […] phosphate buffer saline (pH = 7.4). The concentration of complexes changed from 1 to 10 × 10^−6 M, and the emission spectrum was recorded two minutes after the addition of compounds. The data were analyzed by the double log Stern–Volmer quenching equation (Equation (2)):(2) logI0−I/I=logKb+nlogQ
In the previous equation, I0 and I are the fluorescent emission intensities of BSA/HSA without and with added metal complexes, respectively; Kb is the binding constant; n is the number of binding places; and [Q] is the concentration of quenchers (metal complexes).
The changes in enthalpy and entropy of the binding process were determined from the vant’t Hoff equation (Equation (3)) following the measurements at three temperatures (27, 32, and 37 °C):(3) lnKb=−∆Hb/RT+∆Sb/R

[8] = molecular target: T2, bovine serum albumin (BSA) (Bos taurus, UniProt P02769); test: Spectrofluorometric titration of BSA (fluorescence quenching, double log Stern–Volmer, van't Hoff); type: binding; conditions: for ΔHb / ΔSb: van't Hoff over three temperatures
T2 construct: purchased
T2 sequence (P02769 25-607): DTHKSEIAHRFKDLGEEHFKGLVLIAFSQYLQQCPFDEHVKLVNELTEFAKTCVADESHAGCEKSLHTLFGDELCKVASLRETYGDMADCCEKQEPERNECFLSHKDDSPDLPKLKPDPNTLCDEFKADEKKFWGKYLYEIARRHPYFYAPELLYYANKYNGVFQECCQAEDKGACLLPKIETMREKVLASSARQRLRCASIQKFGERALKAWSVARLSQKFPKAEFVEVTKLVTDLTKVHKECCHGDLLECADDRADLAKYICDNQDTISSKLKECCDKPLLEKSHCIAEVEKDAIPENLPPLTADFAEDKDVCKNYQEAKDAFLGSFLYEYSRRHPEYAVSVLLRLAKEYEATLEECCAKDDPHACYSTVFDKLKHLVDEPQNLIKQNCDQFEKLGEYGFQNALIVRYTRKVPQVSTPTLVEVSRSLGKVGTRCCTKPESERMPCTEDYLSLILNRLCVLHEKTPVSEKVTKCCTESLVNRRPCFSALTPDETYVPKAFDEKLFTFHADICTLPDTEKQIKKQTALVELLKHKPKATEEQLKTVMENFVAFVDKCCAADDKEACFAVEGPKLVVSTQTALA
Experimental: as §3, §4
In the previous equation, I0 and I are the fluorescent emission intensities of BSA/HSA without and with added metal complexes, respectively; Kb is the binding constant; n is the number of binding places; and [Q] is the concentration of quenchers (metal complexes). […]

[9] = test system: HCT116 colorectal carcinoma; test: MTT viability assay, HCT116; type: cell-based, human; conditions: 72 h of treatment
Experimental: as §1, §2

HCT116 cell lines = test system: HCT116 cell lines; set-up: method as in PMID 30798514; conditions: previous study; cited from earlier work
A375 melanoma [10] = test: CV (crystal-violet) viability assay, A375; type: cell-based, human; conditions: 72 h of treatment
Experimental: as §1
as §2, with “After one hour, the MTT solution was discarded, and the formed formazan was dissolved using DMSO.” left out, “Each of the three independent experiments was performed in quadruplicate.” left out

A375 melanoma [11] = test: MTT viability assay, A375; type: cell-based, human; conditions: 72 h of treatment
Experimental: as §1
as §2, with “After one hour, the MTT solution was discarded, and the formed formazan was dissolved using DMSO.” left out, “Each of the three independent experiments was performed in quadruplicate.” left out

[12] = in chloroform, dimethylsulfoxide, dimethylformamide, acetone, and acetonitrile
[13] = in methanol, ethanol, phosphate buffer saline, and water

IC50 (A2780 ovarian cancer [1]) [µM]	solubility [2, 12]	solubility ([2]; in diethyl ether and toluene)	solubility [2, 13]	IC50 (MCF-7 breast cancer [3]) [µM]	IC50 [4] [µM]	IC50 (A2780 ovarian cancer [5]) [µM]	IC50 (MCF-7 breast cancer [6]) [µM]	n (number of binding places) ([7]; 32 °C)	ΔGb ([7]; 32 °C) [kcal/mol]	n (number of binding places) ([7]; 37 °C)	ΔGb ([7]; 37 °C) [kcal/mol]	n (number of binding places) ([7]; 42 °C)	ΔGb ([7]; 42 °C) [kcal/mol]	Kb (binding constant) ([8]; 27 °C) [M⁻¹]	n (number of binding places) ([8]; 27 °C)	ΔGb ([8]; 27 °C) [kcal/mol]	Kb (binding constant) ([8]; 32 °C) [M⁻¹]	n (number of binding places) ([8]; 32 °C)	ΔGb ([8]; 32 °C) [kcal/mol]	Compound	also measured
32.5 ± 2.6	soluble	insoluble	moderately soluble	65.4 ± 4.8	97.4 ± 3.7	38.5 ± 2.1	48.3 ± 1.5	0.91	-5.37	0.90	-5.961	0.98	-6.554	9630	1.13	-5.382	89700	1.10	-7.087	Cu(PLAG)(NCS)2 [Cu-PLAG]	ΔHb [7]: 30.727 kcal/mol; ΔSb [7]: 495.17 J mol^−1 K^−1; Kb (binding constant) ([8]; 35 °C): 1.82e+06 M⁻¹; n (number of binding places) ([8]; 35 °C): 0.98; ΔGb ([8]; 35 °C): -8.788 kcal/mol; ΔHb [8]: 96.793 kcal/mol; ΔSb [8]: 1425.02 J mol^−1 K^−1; IC50 [9]: 81.5 ± 0.1 µM
																				O=S(=O)([O-])[O-].[Cu+2] [CuSO4]	activity towards HCT116 cell line (HCT116 cell lines): almost completely inactive
		insoluble																		Cc1ncc(CO)c(/C=N/N=C(N)N)c1O [PLAG, Pyridoxylidene-aminoguanidine]	solubility ([2]; in MeOH and DMF): soluble; solubility ([2]; in methanol, ethanol, and water): moderately soluble
> 100	soluble	insoluble	moderately soluble	> 100	> 100	> 100	> 100	1.05	-5.578	1.08	-6.761	1.16	-7.945	18600	0.97	-5.858	20400	0.98	-6.021	[Co(PLAG)2]SO4^.2H2O [Co-PLAG]	IC50 (A375 melanoma [10]): > 100 µM; IC50 (A375 melanoma [11]): > 100 µM; ΔHb [7]: 66.597 kcal/mol; ΔSb [7]: 990.11 J mol^−1 K^−1; Kb (binding constant) ([8]; 35 °C): 22900 M⁻¹; n (number of binding places) ([8]; 35 °C): 0.96; ΔGb ([8]; 35 °C): -6.181 kcal/mol; ΔHb [8]: 3.826 kcal/mol; ΔSb [8]: 135.08 J mol^−1 K^−1; IC50 [9]: > 100 µM
> 100	soluble	insoluble	moderately soluble	> 100	> 100	> 100	> 100	1.09	-5.081	0.90	-6.647	1.12	-8.212	31800	1.12	-6.171	83200	1.10	-6.888	[Fe(PLAG)2]SO4^.2H2O [Fe-PLAG]	IC50 (A375 melanoma [10]): > 100 µM; IC50 (A375 melanoma [11]): > 100 µM; ΔHb [7]: 90.411 kcal/mol; ΔSb [7]: 1309.95 J mol^−1 K^−1; Kb (binding constant) ([8]; 35 °C): 234000 M⁻¹; n (number of binding places) ([8]; 35 °C): 1.04; ΔGb ([8]; 35 °C): -7.605 kcal/mol; ΔHb [8]: 36.898 kcal/mol; ΔSb [8]: 600.66 J mol^−1 K^−1; IC50 [9]: > 100 µM
> 100	soluble	insoluble	moderately soluble	> 100	> 100	> 100	> 100	1.11	-6.848	0.99	-6.898	0.95	-6.948	58000	1.13	-6.561	124000	1.09	-7.065	[Zn(PLAG)(SO4)(H2O)]^.H2O [Zn-PLAG]	IC50 (A375 melanoma [10]): > 100 µM; IC50 (A375 melanoma [11]): > 100 µM; Kb (binding constant) ([8]; 35 °C): 208000 M⁻¹; n (number of binding places) ([8]; 35 °C): 1.03; ΔGb ([8]; 35 °C): -7.567 kcal/mol; ΔHb [8]: 23.61 kcal/mol; ΔSb [8]: 420.77 J mol^−1 K^−1; IC50 [9]: > 100 µM
